Several values for one entry are separate records, joined by “and”; a condition that tells them apart may be missing. Equal values may be shown once. Toxic doses and inconclusive results are not listed. Rule for the calls: active = survival T/C of 150% or more; inactive = T/C below 125% in these data.
System: P388 leukemia ip, CD2F1 mice, survival T/C
Test: NCI In Vivo Anticancer Drug Screen. Data for tumor model P388 Leukemia (intraperitoneal) in CD2F1 (CDF1) mice
Conditions: endpoint: median survival time, higher = longer survival
Summary of the method: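 Mice carrying the transplanted tumor received test compound or vehicle. Survival was recorded in each group, and the value is the treated-group measurement divided by that of the vehicle-treated control group.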

[1] = dose: 50.0 mg/kg/injection, schedule: Q04DX002 (ip), vehicle: saline with Tween-80
[2] = dose: 100.0 mg/kg/injection, schedule: Q04DX002 (ip), vehicle: saline with Tween-80
[3] = dose: 200.0 mg/kg/injection, schedule: Q04DX002 (ip), vehicle: saline with Tween-80
[4] = dose: 50.0 mg/kg/injection, schedule: Q01DX005 (ip), vehicle: saline with Tween-80
[5] = dose: 100.0 mg/kg/injection, schedule: Q01DX005 (ip), vehicle: saline with Tween-80
[6] = dose: 200.0 mg/kg/injection, schedule: Q01DX005 (ip), vehicle: saline with Tween-80
[7] = dose: 100.0 mg/kg/injection, schedule: Q04DX002 (ip), vehicle: Klucel (hydroxypropylcellulose) (HPC)
[8] = dose: 200.0 mg/kg/injection, schedule: Q04DX002 (ip), vehicle: Klucel (hydroxypropylcellulose) (HPC)
[9] = dose: 400.0 mg/kg/injection, schedule: Q04DX002 (ip), vehicle: Klucel (hydroxypropylcellulose) (HPC)
[10] = dose: 50.0 mg/kg/injection, schedule: Q01DX009 (ip), vehicle: Klucel (hydroxypropylcellulose) (HPC)
[11] = dose: 100.0 mg/kg/injection, schedule: Q01DX009 (ip), vehicle: Klucel (hydroxypropylcellulose) (HPC)
[12] = dose: 200.0 mg/kg/injection, schedule: Q01DX009 (ip), vehicle: Klucel (hydroxypropylcellulose) (HPC)
[13] = dose: 60.0 mg/kg/injection, schedule: Q01DX005 (ip), vehicle: saline with Tween-80
[14] = dose: 120.0 mg/kg/injection, schedule: Q01DX005 (ip), vehicle: saline with Tween-80
[15] = dose: 240.0 mg/kg/injection, schedule: Q01DX005 (ip), vehicle: saline with Tween-80

Measured: T/C

[Co].[NH-]CC[NH-].[NH-]CC[NH-].[NH-]CC[NH-]
inactive: dose: 25.0 mg/kg/injection, schedule: Q01DX009 (ip), vehicle: saline 100 % of control | dose: 50.0 mg/kg/injection, schedule: Q01DX009 (ip), vehicle: saline 111 % of control | [1] 100 % of control | dose: 100.0 mg/kg/injection, schedule: Q01DX009 (ip), vehicle: saline 105 % of control | [2] 102 % of control | [3] 106 % of control

O=C1C2C3C=CC(O3)C2C(=O)N1N=C1CCCCC1 (configuration not stated)
inactive: [4] 99 % of control | [5] 101 % of control | [6] 101 % of control

CCOc1c(N=Nc2ccccc2OC)c(C)nn1C(=S)S
inactive: dose: 60.0 mg/kg/injection, schedule: Q01DX005 (ip), vehicle: Klucel (hydroxypropylcellulose) (HPC) 102 % of control | dose: 120.0 mg/kg/injection, schedule: Q01DX005 (ip), vehicle: Klucel (hydroxypropylcellulose) (HPC) 114 % of control | dose: 240.0 mg/kg/injection, schedule: Q01DX005 (ip), vehicle: Klucel (hydroxypropylcellulose) (HPC) 105 % of control

CC1CC(c2ccccc2)C(c2ccccc2Cl)C(=O)O1 (configuration not stated)
inactive: [7] 101 % of control | [8] 96 % of control | [9] 96 % of control

NC(=O)NC(=O)/C=C/C(=O)OCCCl
inactive: dose: 6.25 mg/kg/injection, schedule: Q01DX005 (ip), vehicle: Klucel (hydroxypropylcellulose) (HPC) 102 % of control | dose: 12.5 mg/kg/injection, schedule: Q01DX005 (ip), vehicle: Klucel (hydroxypropylcellulose) (HPC) 89 % of control | dose: 25.0 mg/kg/injection, schedule: Q01DX005 (ip), vehicle: Klucel (hydroxypropylcellulose) (HPC) 94 % of control | dose: 50.0 mg/kg/injection, schedule: Q01DX005 (ip), vehicle: Klucel (hydroxypropylcellulose) (HPC) 101 % of control

Oc1ccccc1C=Nc1ccccc1N=Cc1ccccc1O.[Zn]
inactive: [10] 97 % of control | [11] 98 % of control | [12] 95 % of control

COc1ccccc1CC(C)N (configuration not stated)
inactive: dose: 20.0 mg/kg/injection, schedule: Q04DX003 (ip), vehicle: saline 110 % of control | dose: 40.0 mg/kg/injection, schedule: Q04DX003 (ip), vehicle: saline 105 % of control | dose: 80.0 mg/kg/injection, schedule: Q04DX003 (ip), vehicle: saline 105 % of control

CCCCC(Nc1nncs1)Nc1nncs1
inactive: [13] 90 % of control | [14] 102 % of control | [15] 96 % of control

S=C=Nc1ccc(-c2csc(Nc3ccnc4cc(Cl)ccc34)n2)cc1
inactive: dose: 12.5 mg/kg/injection, schedule: Q01DX005 (ip), vehicle: saline with Tween-80 101 % of control | dose: 25.0 mg/kg/injection, schedule: Q01DX005 (ip), vehicle: saline with Tween-80 98 % of control | [4] 99 % of control and 91 % of control | [5] 94 % of control

OC1(c2ccc(CCc3ccc(C4(O)C(c5ccccc5)=C(c5ccccc5)C(c5ccccc5)=C4c4ccccc4)cc3)cc2)C(c2ccccc2)=C(c2ccccc2)C(c2ccccc2)=C1c1ccccc1
inactive: dose: 6.25 mg/kg/injection, schedule: Q01DX009 (ip), vehicle: saline with Tween-80 100 % of control | dose: 12.5 mg/kg/injection, schedule: Q01DX009 (ip), vehicle: saline with Tween-80 97 % of control | dose: 25.0 mg/kg/injection, schedule: Q01DX009 (ip), vehicle: saline with Tween-80 93 % of control | dose: 200.0 mg/kg/injection, schedule: Q01DX001 (ip), vehicle: Klucel (hydroxypropylcellulose) (HPC) 89 % of control

Oc1cc2c(cc1C(Nc1ncccn1)c1ccc3c(c1)OCO3)OCO2 (configuration not stated)
inactive: [13] 102 % of control | [14] 100 % of control | [15] 95 % of control

N#Cc1cc([N+](=O)[O-])c(Cl)c([N+](=O)[O-])c1Cl
inactive: dose: 3.13 mg/kg/injection, schedule: Q04DX003 (ip), vehicle: saline with Tween-80 100 % of control | dose: 6.25 mg/kg/injection, schedule: Q04DX003 (ip), vehicle: saline with Tween-80 100 % of control | dose: 12.5 mg/kg/injection, schedule: Q04DX003 (ip), vehicle: saline with Tween-80 100 % of control

CC(=O)OC(C)C1CC2C=C(C(N)=O)C1N(Cc1ccccc1)C2 (configuration not stated)
inactive: dose: 8.75 mg/kg/injection, schedule: Q01DX005 (ip), vehicle: Klucel (hydroxypropylcellulose) (HPC) 97 % of control | dose: 17.5 mg/kg/injection, schedule: Q01DX005 (ip), vehicle: Klucel (hydroxypropylcellulose) (HPC) 93 % of control | dose: 35.0 mg/kg/injection, schedule: Q01DX005 (ip), vehicle: Klucel (hydroxypropylcellulose) (HPC) 97 % of control

CCCNC1(N(C)C)N=C(N(C)C)N=C(N(C)C)O1 (configuration not stated)
inactive: dose: 50.0 mg/kg/injection, schedule: Q01DX005 (ip), vehicle: saline 102 % of control | dose: 100.0 mg/kg/injection, schedule: Q01DX005 (ip), vehicle: saline 95 % of control

Cc1cccc(C)c1NC(=O)C(=O)/C(=C(\N)c1ccccc1)c1ccccc1
inactive: [4] 101 % of control | [5] 94 % of control | [6] 90 % of control

Cc1cc(=O)n2c(n1)sc1cc3ccccc3cc12
inactive: [7] 98 % of control | [8] 100 % of control | [9] 99 % of control

CS1(=O)=N/C(=N\C(=O)Nc2ccccc2)c2ccccc21 (configuration not stated)
inactive: [10] 100 % of control | [11] 102 % of control | [12] 102 % of control

CC(=N/N=C(N)N)/C(C)=N/N=C(N)N
inactive: [4] 104 % of control | [5] 110 % of control

COc1ccc2[nH]c3cc4ccncc4cc3c2c1
inactive: dose: 25.0 mg/kg/injection, schedule: Q04DX002 (ip), vehicle: saline with Tween-80 122 % of control | [1] 97 % of control | [2] 95 % of control | [3] 97 % of control

NC(=S)N/N=C/c1c(O)c2cc(Cl)ccc2[nH]c1=O
inactive: [4] 106 % of control | [5] 112 % of control | [6] 112 % of control

C=C[Se](=C(C#N)C#N)c1ccccc1 (configuration not stated)
inactive: dose: 25.0 mg/kg/injection, schedule: Q04DX002 (ip), vehicle: saline 111 % of control | dose: 50.0 mg/kg/injection, schedule: Q04DX002 (ip), vehicle: saline 104 % of control | dose: 100.0 mg/kg/injection, schedule: Q04DX002 (ip), vehicle: saline 99 % of control and 101 % of control | dose: 200.0 mg/kg/injection, schedule: Q04DX002 (ip), vehicle: saline 110 % of control | dose: 400.0 mg/kg/injection, schedule: Q04DX002 (ip), vehicle: saline 118 % of control

Nc1nc2nn(Cc3ccc(Cl)c(Cl)c3)c(-c3ccc(Cl)c(Cl)c3)c2c(=O)[nH]1
inactive: dose: 100.0 mg/kg/injection, schedule: Q01DX001 (ip), vehicle: saline with Tween-80 91 % of control | dose: 200.0 mg/kg/injection, schedule: Q01DX001 (ip), vehicle: saline with Tween-80 97 % of control | dose: 400.0 mg/kg/injection, schedule: Q01DX001 (ip), vehicle: saline with Tween-80 88 % of control

CC(C)=CC1C(C(=O)OCc2ccc(C)cc2C)C1(C)C (configuration not stated)
inactive: dose: 100.0 mg/kg/injection, schedule: Q01DX009 (ip), vehicle: saline with Tween-80 104 % of control | dose: 100.0 mg/kg/injection, schedule: Q04DX003 (ip), vehicle: saline with Tween-80 100 % of control | dose: 200.0 mg/kg/injection, schedule: Q01DX009 (ip), vehicle: saline with Tween-80 109 % of control | dose: 200.0 mg/kg/injection, schedule: Q04DX003 (ip), vehicle: saline with Tween-80 100 % of control | dose: 400.0 mg/kg/injection, schedule: Q01DX009 (ip), vehicle: saline with Tween-80 122 % of control | dose: 400.0 mg/kg/injection, schedule: Q04DX003 (ip), vehicle: saline with Tween-80 100 % of control

O=C(O)CCCCCCCCCOC(C[N+](=O)[O-])C(Cl)(Cl)Cl (configuration not stated)
inactive: dose: 50.0 mg/kg/injection, schedule: Q01DX009 (ip), vehicle: other 102 % of control | dose: 100.0 mg/kg/injection, schedule: Q01DX009 (ip), vehicle: other 103 % of control | dose: 200.0 mg/kg/injection, schedule: Q01DX009 (ip), vehicle: other 113 % of control

From PubChem BioAssay AID330 (DTP/NCI, 2004)
